Measurements: patent EP0810221A1 (MITSUBISHI CHEMICAL CORPORATION, priority 1995, dated 1996)

Columns and labels:
[1] = Release of an active compound in blood: incubation in rat serum, HPLC; format: in vitro ADME; conditions: final concentration 100 µ M, 37°C, 5 minutes
Protocol: (2S,3S)-2-acetoxy-3-((S)-4-methyl-2-phenylsulfonylaminovalerylamino)tetrahydrofuran obtained in Example 88 was dissolved in acetonitrile and the solution was added to rat serum so that its final concentration was adjusted to 100 µ M. The mixture was incubated at 37°C for 5 minutes. The mixture was then added with acetonitrile and centrifuged, and the resulting solution portion was applied to HPLC for analysis. For comparison, solutions obtained by dissolving (3S)-3-((S)-4-methyl-2-phenylsulfonylaminovalerylamino)-2-tetrahydrofuranol obtained in Example 1 and (2S,3S)-2-acetoxy-3-((S)-4-methyl-2-phenylsulfonylaminovalerylamino)tetrahydrofuran obtained in Example 88 in acetonitrile respectively were examined by HPLC.
The HPLC conditions were as follows: Column: Nucleosil 1005 C18, 4.6×250 mm (Nagel) Column temperature: 50°C Mobile phase: CH3CN:H2O:PIC A Low UV (Waters) = 22:78:1 Flow rate: 1 ml/min Detection wavelength: UV 222 nm

[2] = Release of an active compound in blood: incubation in human serum, HPLC; format: in vitro ADME; conditions: same procedure
[3] = Release of an active compound in blood: incubation in dog serum, HPLC; format: in vitro ADME; conditions: same procedure
[4] = Acute toxicity test, oral; conditions: both sexes, rat, in vivo, orally administered, suspended in 0.5% aqueous CMC-Na, SD male and female rats, observed for seven days
Source text: Compounds of the present invention was suspended in 0.5% aqueous solution of CMC-Na and the suspensions were orally administered to SD male and female rats.

[5] = test system: microtubule-binding proteins; conditions: after cerebral ischemia; cited from earlier work
[6] = test system: muscular dystrophy hamsters; conditions: cited from earlier work
blood platelets = conditions: cited from earlier work
[7] = test system: animal model of myocardial infarct; conditions: in vivo; cited from earlier work
axon = conditions: head injury model using a rat; cited from earlier work

Q: What does the source list for CC(=O)O[C@@H]1OCC[C@@H]1NC(=O)[C@H](CC(C)C)NS(=O)(=O)c1ccccc1 [Example 88, (2S,3S)-2-acetoxy-3-((S)-4-methyl-2-phenylsulfonylaminovalerylamino)tetrahydrofuran]?
A: hydrolyzed and converted into the active form [1]: 97%; formation of active form [2]: formations of active form were also observed; formation of active form [3]: formations of active form were also observed; LD50 at 7 days [4]: < 2000 mg/kg

Q: Which “degradation of microtubule-binding proteins” value [5] does the source give for CC(C)CCNC(=O)[C@H](CC(C)C)NC(=O)[C@H]1O[C@@H]1C(=O)O [Example E-64-c, E-64-c] here?
A: The value was “suppressed”.

Q: What does the source list for CCOC(=O)[C@H]1O[C@@H]1C(=O)N[C@@H](CC(C)C)C(=O)NCCC(C)C [Example E-64-d, E-64-d]?
A: life prolongation effect [6]: life prolongation effect; platelet aggregation caused by thrombin (blood platelets): suppressed

Q: Which “efficacy in an animal model of myocardial infarct” value [7] does the source give for CCOC(=O)[C@@H]1O[C@H]1C(=O)NC(CC(C)C)C(=O)N1CCN(Cc2ccc(OC)c(OC)c2OC)CC1.CCOC(=O)[C@@H]1O[C@H]1C(=O)NC(CC(C)C)C(=O)N1CCN(Cc2ccc(OC)c(OC)c2OC)CC1.O=S(=O)(O)O (stereo partly drawn) [NCO-700] here?
A: The value was “effective”.

Q: With CC(=O)N[C@@H](CC(C)C)C(=O)N[C@@H](CC(C)C)C(=O)N[C@H](C=O)CCCNC(=N)N [leupeptin] as the molecule, how does the “protective effect on axon” value (axon) read?
A: Its value is “protective effect on axon was observed”.
